One test concerns the target T1, STAT6 (Homo sapiens, UniProt P42226).
T1 construct: stably transfected HaCaT keratinocyte cell line, which expresses NanoLuc luciferase reporter gene under the transcriptional control of the STAT6 responsive promoter; endogenous in cells; host or cells: HaCaT keratinocyte reporter cell line (stably transfected with a NanoLuc reporter)
T1 sequence (P42226 1-847): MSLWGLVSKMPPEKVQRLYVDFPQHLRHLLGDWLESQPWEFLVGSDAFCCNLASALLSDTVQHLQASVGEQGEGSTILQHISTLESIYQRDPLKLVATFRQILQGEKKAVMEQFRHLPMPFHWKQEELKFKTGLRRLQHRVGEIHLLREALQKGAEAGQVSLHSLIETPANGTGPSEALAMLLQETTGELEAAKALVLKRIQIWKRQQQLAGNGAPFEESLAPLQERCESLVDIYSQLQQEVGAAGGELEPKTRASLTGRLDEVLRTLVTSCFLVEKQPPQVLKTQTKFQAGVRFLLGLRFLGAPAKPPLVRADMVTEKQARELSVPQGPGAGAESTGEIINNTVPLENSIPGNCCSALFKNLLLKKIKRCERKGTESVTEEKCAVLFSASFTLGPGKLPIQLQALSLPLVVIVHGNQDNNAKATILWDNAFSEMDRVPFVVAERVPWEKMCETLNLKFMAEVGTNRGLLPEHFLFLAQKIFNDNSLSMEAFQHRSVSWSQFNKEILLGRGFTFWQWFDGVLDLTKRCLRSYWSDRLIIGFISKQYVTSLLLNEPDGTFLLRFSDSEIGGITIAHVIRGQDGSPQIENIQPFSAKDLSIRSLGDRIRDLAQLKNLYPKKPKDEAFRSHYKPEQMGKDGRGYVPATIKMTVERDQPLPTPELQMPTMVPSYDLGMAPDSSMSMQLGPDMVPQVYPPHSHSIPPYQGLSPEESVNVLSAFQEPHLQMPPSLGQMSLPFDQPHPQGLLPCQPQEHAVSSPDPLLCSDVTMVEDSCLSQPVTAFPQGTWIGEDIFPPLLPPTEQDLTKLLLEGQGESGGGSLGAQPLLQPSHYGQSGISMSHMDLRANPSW
The test can be described thus: STAT6 Reporter Luciferase Assay (IL-13 stimulated HaCaT keratinocyte NanoLuc reporter cells). Type of test: cell-based. Conditions: IL-13 stimulated HaCaT STAT6 NanoLuc reporter cells; read-out: Reporter EC50. In short, it runs like this:
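HaCaT IL-13Ra2-promoter NanoLuc reporter; cpd 2 h 37 °C in DMEM/2% HI FBS; IL-13 0.12 nM final, 4 h; Nano-Glo luminescence.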

Test [1] has as its system CCL17 secretion in peripheral human whole blood. The test can be described thus: Human Whole Blood (HWB) CCL17 TR-FRET Assay (IL-13 stimulated CCL17 secretion). Type of test: cell-based. Conditions: Homo sapiens, 48 h, human whole blood, IL-13 stimulated. In short, it runs like this: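 Heparinized human whole blood was preincubated with compound (11-point, 3-fold series) for 2 h at 37°C, then stimulated with IL-13 (10 ng/mL final) for 48 h. Serum CCL17 was measured by TR-FRET sandwich immunoassay (665/615 nm ratio) after 16 h at room temperature, giving IC50.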
For orientation: TR-FRET usually uses a lanthanide donor and a delayed reading to cut background.

As for `CCn1nc(C(=O)NCc2ccc(-c3ncc[nH]3)cc2)c2c1[C@@H](C)CN(c1ccc(C(=O)N(C)C)cn1)C2` [Example 283, (S)-N-(4-(1H-imidazol-2-yl)benzyl)-5-(5-(dimethylcarbamoyl)pyridin-2-yl)-1-ethyl-7-methyl-4,5,6,7-tetrahydro-1H-pyrazolo[4,3-c]pyridine-3-carboxamide], the EC50 on STAT6 is 0.002 µM. The compound further registered an IC50 in test [1] of 0.011 µM.

For `CCn1nc(C(=O)NCc2ccc(C(=O)NC)cc2)c2c1[C@@H](C)CN(c1ccc(C(=O)N(C)C)cn1)C2` [Example 284, (S)-5-(5-(dimethylcarbamoyl)pyridin-2-yl)-1-ethyl-7-methyl-N-(4-(methylcarbamoyl)benzyl)-4,5,6,7-tetrahydro-1H-pyrazolo[4,3-c]pyridine-3-carboxamide], the EC50 on STAT6 is 0.008 µM. In test [1], this compound showed an IC50 of 0.04 µM.

`CC(C)n1nc(C(=O)NCc2ccc(NC(=O)N(C)C)cc2)c2c1CCN(c1ccc(CC(=O)N(C)C)cn1)C2` [Example 286, 5-(5-(2-(Dimethylamino)-2-oxoethyl)pyridin-2-yl)-N-(4-(3,3-dimethylureido)benzyl)-1-isopropyl-4,5,6,7-tetrahydro-1H-pyrazolo[4,3-c]pyridine-3-carboxamide]: the EC50 on STAT6 was 0.663 µM. Further, the IC50 in test [1] is > 3.06 µM.

On to `CCn1nc(C(=O)NCc2ccc(-c3ncc[nH]3)cc2)c2c1[C@@H](C)CN(c1ncc(C(=O)N(C)C)cn1)C2` [Example 301, (S)-N-(4-(1H-imidazol-2-yl)benzyl)-5-(5-(dimethylcarbamoyl)pyrimidin-2-yl)-1-ethyl-7-methyl-4,5,6,7-tetrahydro-1H-pyrazolo[4,3-c]pyridine-3-carboxamide], for which the EC50 at STAT6 was determined as 0.001 µM. The compound also displayed an IC50 in test [1] of 0.008 µM.

On to `CCn1nc(C(=O)NCc2ccc(NC(=O)N(C)C)cn2)c2c1[C@@H](C)CN(c1ccc(C(=O)N(C)C)cn1)C2` [Example 302, (S)-5-(5-(dimethylcarbamoyl)pyridin-2-yl)-N-((5-(3,3-dimethylureido)pyridin-2-yl)methyl)-1-ethyl-7-methyl-4,5,6,7-tetrahydro-1H-pyrazolo[4,3-c]pyridine-3-carboxamide], for which, at STAT6, the EC50 is 0.006 µM. Besides, in test [1], half-maximal inhibition (IC50) was put at 0.009 µM.

For `CCn1nc(C(=O)NCc2ccc(NC(=O)N(C)C)cn2)c2c1[C@@H](C)CN(c1ncc(C(=O)N(C)C)cn1)C2` [Example 305, (S)-5-(5-(dimethylcarbamoyl)pyrimidin-2-yl)-N-((5-(3,3-dimethylureido)pyridin-2-yl)methyl)-1-ethyl-7-methyl-4,5,6,7-tetrahydro-1H-pyrazolo[4,3-c]pyridine-3-carboxamide], on STAT6, the EC50 was 0.005 µM. The compound also returned an IC50 in test [1] of 0.007 µM.

Consider `CCn1nc(C(=O)NCc2ccc(C(=O)NC)cc2)c2c1[C@@H](C)CN(c1ncc(C(=O)N(C)C)cn1)C2` [Example 306, (S)-5-(5-(dimethylcarbamoyl)pyrimidin-2-yl)-1-ethyl-7-methyl-N-(4-(methylcarbamoyl)benzyl)-4,5,6,7-tetrahydro-1H-pyrazolo[4,3-c]pyridine-3-carboxamide], for which, at STAT6, the EC50 was determined as 0.007 µM. In test [1], the IC50 turned out to be 0.033 µM.

With `CN(C)C(=O)Nc1ccc(CNC(=O)c2nn(CCC#N)c3c2CN(c2ccc(C(=O)N(C)C)cn2)CC3)cc1` [Example 308, 1-(2-cyanoethyl)-5-(5-(dimethylcarbamoyl)pyridin-2-yl)-N-(4-(3,3-dimethylureido)benzyl)-4,5,6,7-tetrahydro-1H-pyrazolo[4,3-c]pyridine-3-carboxamide], the EC50 on STAT6 came out at 0.287 µM. This compound returned an IC50 in test [1] of 0.718 µM.

Turning to `CN(C)C(=O)Nc1ccc(CNC(=O)c2nn(CCC(N)=O)c3c2CN(c2ccc(C(=O)N(C)C)cn2)CC3)cc1` [Example 309, 1-(3-amino-3-oxopropyl)-5-(5-(dimethylcarbamoyl)pyridin-2-yl)-N-(4-(3,3-dimethylureido)benzyl)-4,5,6,7-tetrahydro-1H-pyrazolo[4,3-c]pyridine-3-carboxamide], the EC50 at STAT6 is 1.71 µM. In test [1], this compound registered an IC50 of 4.1 µM.

On to `CN(C)C(=O)Nc1ccc(CNC(=O)c2nn(C3(C(F)(F)F)CC3)c3c2CN(c2ccc(C(=O)N(C)C)cn2)CC3)cc1` [Example 320, 5-(5-(dimethylcarbamoyl)pyridin-2-yl)-N-(4-(3,3-dimethylureido)benzyl)-1-(1-(trifluoromethyl)cyclopropyl)-4,5,6,7-tetrahydro-1H-pyrazolo[4,3-c]pyridine-3-carboxamide], for which the EC50 on STAT6 came to 0.005 µM. Besides, in test [1], the IC50 was found to be 0.135 µM.

As for `CCn1nc(C(=O)NCc2ccc(NC(=O)N(C)C)nc2)c2c1[C@@H](C)CN(c1ccc(C(=O)N(C)C)cn1)C2` [Example 323, (S)-5-(5-(dimethylcarbamoyl)pyridin-2-yl)-N-((6-(3,3-dimethylureido)pyridin-3-yl)methyl)-1-ethyl-7-methyl-4,5,6,7-tetrahydro-1H-pyrazolo[4,3-c]pyridine-3-carboxamide], at STAT6, the EC50 amounted to 0.005 µM. This compound showed an IC50 in test [1] of 0.026 µM.

In the case of `CCn1nc(C(=O)NCc2ccc(NC(=O)N(C)C)nc2)c2c1[C@@H](C)CN(c1ncc(C(=O)N(C)C)cn1)C2` [Example 324, (S)-5-(5-(dimethylcarbamoyl)pyrimidin-2-yl)-N-((6-(3,3-dimethylureido)pyridin-3-yl)methyl)-1-ethyl-7-methyl-4,5,6,7-tetrahydro-1H-pyrazolo[4,3-c]pyridine-3-carboxamide], the EC50 at STAT6 came out at 0.005 µM. In test [1], this compound returned an IC50 of 0.018 µM.

As for `CNC(=O)Cc1ccc(N2CCc3c(c(C(=O)NCc4ccc(NC(=O)N(C)C)cc4)nn3C(C)C)C2)nc1` [Example 337, N-(4-(3,3-dimethylureido)benzyl)-1-isopropyl-5-(5-(2-(methylamino)-2-oxoethyl)pyridin-2-yl)-4,5,6,7-tetrahydro-1H-pyrazolo[4,3-c]pyridine-3-carboxamide], the EC50 on STAT6 was 5.37 µM. In addition, the IC50 in test [1] is > 20.5 µM.

Turning to `CC(C)n1nc(C(=O)NCc2ccc(NC(=O)N(C)C)cc2)c2c1CCN(c1ccc(C3COC3)cn1)C2` [Example 338, N-(4-(3,3-Dimethylureido)benzyl)-1-isopropyl-5-(5-(oxetan-3-yl)pyridin-2-yl)-4,5,6,7-tetrahydro-1H-pyrazolo[4,3-c]pyridine-3-carboxamide], on STAT6, the EC50 was 3.11 µM. For the same compound, the IC50 in test [1] is > 30 µM.

Regarding `CC(C)n1nc(C(=O)NCc2ccc(NC(=O)N(C)C)cc2)c2c1[C@@H](C)CN(c1ncc(-c3nccn3C)cn1)C2` [Example 340, (S)-N-(4-(3,3-dimethylureido)benzyl)-1-isopropyl-7-methyl-5-(5-(1-methyl-1H-imidazol-2-yl)pyrimidin-2-yl)-4,5,6,7-tetrahydro-1H-pyrazolo[4,3-c]pyridine-3-carboxamide], the EC50 at STAT6 is 0.276 µM. In test [1], this compound gave an IC50 of 2.34 µM.

For the compound `CNC(=O)c1ccc(CNC(=O)c2nn(C(C)C)c3c2CN(c2ccc(C(=O)N(C)C)cn2)C[C@@H]3C)cc1` [Example 341, (S)-5-(5-(dimethylcarbamoyl)pyridin-2-yl)-1-isopropyl-7-methyl-N-(4-(methylcarbamoyl)benzyl)-4,5,6,7-tetrahydro-1H-pyrazolo[4,3-c]pyridine-3-carboxamide], the EC50 on STAT6 stood at 0.004 µM. The compound further showed an IC50 in test [1] of 0.028 µM.

One may read the EC50 as the concentration needed to bring the measured effect to its halfway point. Usually IC50 stands for the point on the concentration scale where inhibition reaches its midpoint.
